Here are results for two compounds from patent publication US12486250B2, “Muscarinic receptor 4 antagonists and methods of use” (Neurocrine Biosciences, Inc., priority 2019, dated 2025).

A value given as a limit tells only on which side of the number the result lay.

The term Ki denotes a dissociation constant, usually derived from enzyme kinetics or from competition with a known ligand.

Assay [1] deals with T1, human M3 receptor (Homo sapiens, UniProt P20309).
T1 construct: expressed in transfected cells; host or cells: CHO cells
Put plainly: Radioligand ([3H]N-methylscopolamine) binding assay, CHO cell membranes. Particulars: 1.5 nM tritiated N-methylscopolamine, 90 minutes at 37° C.; read-out: Binding affinity (Ki) M3. The protocol: (§1) Binding affinity (Ki) of compounds was measured by inhibition of radioligand binding to membranes from CHO cells expressing human M1, M2, M3, M4 and M5 receptors. Membranes were prepared by nitrogen cavitation and differential centrifugation as previously described (Hoare et al., Mol. Pharmacol. 2003 March; 63(3): 751-65). The radioligand employed was tritiated N-methylscopolamine, used at a concentration of 1.5 nM. A dose-response of twelve concentrations of compound was used, ranging from […]. The assay buffer was 50 mM HEPES, 100 mM NaCl, 5 mM MgCl2, 1 mM ethylenediaminetetraacetic acid, pH-adjusted to pH 7.4. Membranes, radioligand and compound were incubated together for 90 minutes at 37° C., in a total volume of 150 μL in a 96-well plate. Receptor-bound radioligand was then collected by harvesting the assay over glass fiber filters pretreated with polyethylenimine to trap the cell membranes, using rapid vacuum filtration. Harvesting and radioactivity counting was conducted as previously described (see, e.g., Hoare et al., Mol. Pharmacol. 2003 63(3):751-65); Erratum at Mol. Pharmacol. 2005 July; 68(1): 260).

In assay [2] the target is T2, human M5 receptor (Homo sapiens, UniProt P08912).
T2 construct: expressed in transfected cells; host or cells: CHO cells
T2 sequence (P08912 1-532): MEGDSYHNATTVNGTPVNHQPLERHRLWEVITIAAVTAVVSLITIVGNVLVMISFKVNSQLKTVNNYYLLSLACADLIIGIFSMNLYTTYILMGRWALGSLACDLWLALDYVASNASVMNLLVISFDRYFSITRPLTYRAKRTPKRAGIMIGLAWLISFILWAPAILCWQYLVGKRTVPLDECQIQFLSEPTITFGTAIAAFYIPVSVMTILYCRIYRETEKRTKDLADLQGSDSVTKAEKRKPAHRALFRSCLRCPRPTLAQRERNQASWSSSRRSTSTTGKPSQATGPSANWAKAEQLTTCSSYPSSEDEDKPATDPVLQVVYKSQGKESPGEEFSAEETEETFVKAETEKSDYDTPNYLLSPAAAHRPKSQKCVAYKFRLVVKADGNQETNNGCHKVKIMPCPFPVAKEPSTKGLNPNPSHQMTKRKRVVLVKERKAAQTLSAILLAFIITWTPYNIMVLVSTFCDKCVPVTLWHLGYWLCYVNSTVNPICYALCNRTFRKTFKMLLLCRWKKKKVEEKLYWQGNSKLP
The description is as above. Particulars: 1.5 nM tritiated N-methylscopolamine, 90 minutes at 37° C.; read-out: Binding affinity (Ki) M5. The protocol:
as §1

T1 sequence (P20309 whole entry): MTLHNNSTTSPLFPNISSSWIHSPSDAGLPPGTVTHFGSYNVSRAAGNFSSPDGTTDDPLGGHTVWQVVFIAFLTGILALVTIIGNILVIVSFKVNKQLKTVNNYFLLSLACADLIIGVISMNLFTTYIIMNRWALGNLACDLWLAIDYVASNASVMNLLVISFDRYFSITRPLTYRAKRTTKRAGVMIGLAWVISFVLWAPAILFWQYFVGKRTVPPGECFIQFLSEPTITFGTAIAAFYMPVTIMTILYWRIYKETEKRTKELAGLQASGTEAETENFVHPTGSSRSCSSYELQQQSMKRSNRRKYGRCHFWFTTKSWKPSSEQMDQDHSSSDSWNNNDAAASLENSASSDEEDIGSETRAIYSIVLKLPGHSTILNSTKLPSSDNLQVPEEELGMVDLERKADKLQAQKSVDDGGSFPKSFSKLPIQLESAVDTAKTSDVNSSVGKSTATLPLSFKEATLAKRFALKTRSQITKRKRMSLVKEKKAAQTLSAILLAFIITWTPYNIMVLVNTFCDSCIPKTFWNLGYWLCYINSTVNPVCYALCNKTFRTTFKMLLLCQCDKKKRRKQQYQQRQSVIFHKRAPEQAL

Take `C[C@@H]1CN(c2cnc(C(F)(F)F)cn2)C[C@H](C)N1C(=O)OCCC1CCN(Cc2ccccc2)CC1` [Compound 1, 2-(1-benzylpiperidin-4-yl)ethyl (2R,6S)-2,6-dimethyl-4-[5-(trifluoromethyl)pyrazin-2-yl]piperazine-1-carboxylate]: the inhibition constant (Ki) in assay [1] and in assay [2] was no less than 1000 nM in each case.

On to `C[C@@H]1CN(c2cnc(C(F)(F)F)cn2)C[C@@H](C)N1C(=O)OCCC1CCN(Cc2ccccc2)CC1` [Compound 2, 2-(1-benzylpiperidin-4-yl)ethyl (2R,6R)-2,6-dimethyl-4-[5-(trifluoromethyl)pyrazin-2-yl]piperazine-1-carboxylate], for which the inhibitory constant (Ki) in assay [1] and in assay [2] was no less than 1000 nM each time.
